From ChEMBL document CHEMBL5625175, “Quinazoline-based VEGFR-2 inhibitors as potential anti-angiogenic agents: A contemporary perspective of SAR and molecular docking studies” (Eur J Med Chem, 2023) come the findings set out here.

Test [1] has as its target T1, Vascular endothelial growth factor receptor 2 (Homo sapiens, UniProt P35968). Briefly: Inhibition of VEGFR-2 (unknown origin) using poly-Glu-Ala-Tyr-biotin as substrate pre-incubated for 10 mins followed by substrate addition and measured after 30 mins by HTRF method. On the technique in general: TR-FRET usually uses a lanthanide donor and a delayed reading to cut background.

The target in test [2] is T2, Vascular endothelial growth factor receptor 1 (Homo sapiens, UniProt P17948). Briefly: Inhibition of VEGFR1 (unknown origin) by FRET based Z-LYTE kinase assay.
T2 sequence (P17948 whole entry): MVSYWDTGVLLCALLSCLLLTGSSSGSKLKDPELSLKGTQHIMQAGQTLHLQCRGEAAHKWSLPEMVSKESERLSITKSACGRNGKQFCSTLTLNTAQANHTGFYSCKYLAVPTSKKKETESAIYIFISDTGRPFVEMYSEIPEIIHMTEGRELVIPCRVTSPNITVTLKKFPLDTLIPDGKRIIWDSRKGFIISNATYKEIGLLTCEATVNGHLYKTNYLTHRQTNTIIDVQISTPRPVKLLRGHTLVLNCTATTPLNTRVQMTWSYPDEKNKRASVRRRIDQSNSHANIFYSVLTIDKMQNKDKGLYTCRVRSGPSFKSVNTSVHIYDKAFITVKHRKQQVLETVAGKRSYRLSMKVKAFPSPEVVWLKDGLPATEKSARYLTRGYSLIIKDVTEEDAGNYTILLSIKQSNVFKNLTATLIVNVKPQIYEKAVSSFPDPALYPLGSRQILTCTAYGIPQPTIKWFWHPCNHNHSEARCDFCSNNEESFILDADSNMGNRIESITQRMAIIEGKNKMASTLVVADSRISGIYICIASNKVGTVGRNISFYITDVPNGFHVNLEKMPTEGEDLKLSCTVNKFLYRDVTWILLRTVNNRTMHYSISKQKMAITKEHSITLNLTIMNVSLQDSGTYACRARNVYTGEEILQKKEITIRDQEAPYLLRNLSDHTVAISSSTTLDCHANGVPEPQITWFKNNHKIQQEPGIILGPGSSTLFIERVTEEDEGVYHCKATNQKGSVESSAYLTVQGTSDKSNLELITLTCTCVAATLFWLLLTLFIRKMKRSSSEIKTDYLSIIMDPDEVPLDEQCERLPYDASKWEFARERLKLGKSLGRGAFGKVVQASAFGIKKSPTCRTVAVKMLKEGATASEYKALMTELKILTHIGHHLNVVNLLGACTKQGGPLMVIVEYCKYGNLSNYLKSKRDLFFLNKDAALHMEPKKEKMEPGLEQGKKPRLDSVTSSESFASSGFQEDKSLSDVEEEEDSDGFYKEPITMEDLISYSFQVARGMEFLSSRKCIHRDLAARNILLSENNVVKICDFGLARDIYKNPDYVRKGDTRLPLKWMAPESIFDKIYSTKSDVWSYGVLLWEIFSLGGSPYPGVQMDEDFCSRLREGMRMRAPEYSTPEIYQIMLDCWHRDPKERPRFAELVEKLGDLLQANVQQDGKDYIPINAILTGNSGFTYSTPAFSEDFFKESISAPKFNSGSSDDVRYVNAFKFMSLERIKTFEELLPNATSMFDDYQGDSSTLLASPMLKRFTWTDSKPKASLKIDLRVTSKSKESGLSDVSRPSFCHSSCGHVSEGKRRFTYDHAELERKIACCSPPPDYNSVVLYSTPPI
Test [3] has as its target T2, Vascular endothelial growth factor receptor 1. Briefly: Inhibition of VEGFR-1 (unknown origin) by HTRF method.
Test [4] has the same target. In words: Inhibition of VEGFR-1 (unknown origin) at 10 uM relative to control.
Test [5] addresses T1, Vascular endothelial growth factor receptor 2. In words: Inhibition of N-terminal polyhistidine human recombinant KDR using poly-(Glu4-Tyr) peptide as substrate incubated for 60 mins by DELFIA/time-resolved fluorometric analysis.
In test [6] the test system is A549. In words: Antitumor activity against human A549 cells assessed as reduction in cell viability incubated for 48 hrs by CCK-8 assay. Format: functional, cell-based. Conditions: A549, 48 h. In general terms: Tetrazolium assays rely on reduction of a dye to a coloured formazan, in cell work by metabolically active cells.
Test [7] has as its system HT-29. Briefly: Antitumor activity against human HT-29 cells assessed as reduction in cell viability incubated for 48 hrs by CCK-8 assay. In kind it is functional, cell-based. Conditions: HT-29, 48 h.
The subject of test [8] is MCF7. Briefly: Antitumor activity against human MCF7 cells assessed as reduction in cell viability incubated for 48 hrs by CCK-8 assay. In kind it is functional, cell-based. Conditions: MCF7, 48 h.
The target in test [9] is Receptor-type tyrosine-protein kinase FLT3 (Homo sapiens) (UniProt P36888). Briefly: Inhibition of FLT-3 (unknown origin) at 10 uM relative to control.
Sequence of Receptor-type tyrosine-protein kinase FLT3 (Homo sapiens) (P36888 whole entry): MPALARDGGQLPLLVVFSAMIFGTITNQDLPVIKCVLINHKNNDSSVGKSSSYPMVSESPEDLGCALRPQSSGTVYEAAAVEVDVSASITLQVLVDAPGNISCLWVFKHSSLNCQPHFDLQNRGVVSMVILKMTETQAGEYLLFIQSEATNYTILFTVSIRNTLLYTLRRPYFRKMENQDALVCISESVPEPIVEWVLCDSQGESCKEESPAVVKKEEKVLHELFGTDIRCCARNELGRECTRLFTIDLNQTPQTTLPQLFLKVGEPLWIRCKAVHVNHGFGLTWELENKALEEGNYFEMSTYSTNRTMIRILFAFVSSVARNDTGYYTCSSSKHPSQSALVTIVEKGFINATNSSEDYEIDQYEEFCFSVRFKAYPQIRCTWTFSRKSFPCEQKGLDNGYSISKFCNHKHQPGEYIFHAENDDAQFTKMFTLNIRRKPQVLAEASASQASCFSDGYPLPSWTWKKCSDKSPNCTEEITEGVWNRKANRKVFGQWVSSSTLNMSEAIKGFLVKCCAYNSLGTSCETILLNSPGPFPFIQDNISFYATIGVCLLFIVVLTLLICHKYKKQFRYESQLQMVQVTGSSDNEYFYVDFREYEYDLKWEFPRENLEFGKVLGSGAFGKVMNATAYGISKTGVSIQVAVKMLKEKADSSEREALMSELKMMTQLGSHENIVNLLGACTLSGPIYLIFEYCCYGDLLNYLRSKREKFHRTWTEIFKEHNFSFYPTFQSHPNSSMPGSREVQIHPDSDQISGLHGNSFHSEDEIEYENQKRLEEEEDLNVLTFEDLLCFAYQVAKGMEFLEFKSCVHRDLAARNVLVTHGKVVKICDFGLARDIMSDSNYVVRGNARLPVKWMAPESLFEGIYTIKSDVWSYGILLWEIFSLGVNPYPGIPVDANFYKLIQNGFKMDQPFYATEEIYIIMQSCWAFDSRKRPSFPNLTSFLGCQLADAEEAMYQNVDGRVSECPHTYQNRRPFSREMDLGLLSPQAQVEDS
Test [10] has as its target T1, Vascular endothelial growth factor receptor 2. In words: Inhibition of VEGF-induced human VEGFR2 autophosphorylation expressed in HUVEC cells measured after 2 hrs by chemiluminescence assay. In kind it is cell-based.
Test [11] deals with HepG2. Briefly: Antitumor activity against human HepG2 cells xenografted in athymic nu/nu mouse assessed as tumor growth inhibition at 100 mg/kg, ip administered once daily relative to control. Format: functional. Also on record: scale not given: the % may be the effect or the level left. (In general: A xenograft is tissue or cells of one species grown in another, often human tumour cells in immunodeficient mice.)

Test [12] relates to PC-3. Briefly: Antitumor activity against human PC-3 cells assessed as reduction in cell growth incubated for 48 hrs by MTT assay. The settings on record: PC-3, 48 h. In kind it is functional, cell-based.
The test system of test [13] is MCF7. In words: Antitumor activity against human MCF7 cells assessed as reduction in cell growth incubated for 48 hrs by MTT assay. The settings on record: MCF7, 48 h. Format: functional, cell-based.
For test [14], the system named is HepG2. Briefly: Antitumor activity against human HepG2 cells assessed as reduction in cell growth incubated for 48 hrs by MTT assay. The settings on record: HepG2, 48 h. Format: functional, cell-based.
Test [15] addresses Epidermal growth factor receptor (Homo sapiens, UniProt P00533). Briefly: Inhibition of EGFR (unknown origin) using TK as substrate incubated for 60 mins by HTRF method.

T1 sequence (P35968 whole entry): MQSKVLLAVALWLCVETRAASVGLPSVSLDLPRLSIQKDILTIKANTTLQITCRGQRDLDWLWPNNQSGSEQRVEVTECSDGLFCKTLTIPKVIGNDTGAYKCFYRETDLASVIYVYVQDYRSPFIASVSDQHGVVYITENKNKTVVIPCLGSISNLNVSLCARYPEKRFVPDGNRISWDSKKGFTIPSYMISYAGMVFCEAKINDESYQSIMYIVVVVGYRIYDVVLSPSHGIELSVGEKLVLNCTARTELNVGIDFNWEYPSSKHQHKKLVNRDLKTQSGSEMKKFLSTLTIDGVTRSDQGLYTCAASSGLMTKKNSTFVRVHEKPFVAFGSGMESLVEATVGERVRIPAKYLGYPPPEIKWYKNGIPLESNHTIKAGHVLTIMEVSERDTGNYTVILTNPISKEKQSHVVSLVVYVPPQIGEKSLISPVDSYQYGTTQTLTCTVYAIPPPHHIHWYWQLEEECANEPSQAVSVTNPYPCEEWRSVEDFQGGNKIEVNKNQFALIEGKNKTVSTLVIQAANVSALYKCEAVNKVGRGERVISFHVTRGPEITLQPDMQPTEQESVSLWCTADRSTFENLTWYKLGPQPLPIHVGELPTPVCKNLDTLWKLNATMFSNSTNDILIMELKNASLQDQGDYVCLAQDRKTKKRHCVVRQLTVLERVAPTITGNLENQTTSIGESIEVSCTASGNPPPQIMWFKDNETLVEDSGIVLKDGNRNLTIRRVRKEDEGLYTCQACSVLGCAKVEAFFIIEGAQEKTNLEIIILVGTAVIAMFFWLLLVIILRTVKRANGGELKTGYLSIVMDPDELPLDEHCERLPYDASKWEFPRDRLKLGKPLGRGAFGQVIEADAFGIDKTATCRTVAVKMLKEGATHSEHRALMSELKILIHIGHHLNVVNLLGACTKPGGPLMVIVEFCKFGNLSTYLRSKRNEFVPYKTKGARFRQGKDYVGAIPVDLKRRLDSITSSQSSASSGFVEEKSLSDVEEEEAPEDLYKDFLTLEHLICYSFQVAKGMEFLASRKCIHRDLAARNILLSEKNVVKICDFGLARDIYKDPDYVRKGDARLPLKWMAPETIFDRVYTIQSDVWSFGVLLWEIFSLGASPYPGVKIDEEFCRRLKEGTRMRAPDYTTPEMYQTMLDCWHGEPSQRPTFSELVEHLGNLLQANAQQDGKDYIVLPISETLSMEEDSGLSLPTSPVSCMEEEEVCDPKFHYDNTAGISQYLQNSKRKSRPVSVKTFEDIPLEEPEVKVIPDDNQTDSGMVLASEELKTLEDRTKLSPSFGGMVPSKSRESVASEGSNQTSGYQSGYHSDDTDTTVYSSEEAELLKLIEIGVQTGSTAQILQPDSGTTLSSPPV
Sequence of Epidermal growth factor receptor (P00533 whole entry): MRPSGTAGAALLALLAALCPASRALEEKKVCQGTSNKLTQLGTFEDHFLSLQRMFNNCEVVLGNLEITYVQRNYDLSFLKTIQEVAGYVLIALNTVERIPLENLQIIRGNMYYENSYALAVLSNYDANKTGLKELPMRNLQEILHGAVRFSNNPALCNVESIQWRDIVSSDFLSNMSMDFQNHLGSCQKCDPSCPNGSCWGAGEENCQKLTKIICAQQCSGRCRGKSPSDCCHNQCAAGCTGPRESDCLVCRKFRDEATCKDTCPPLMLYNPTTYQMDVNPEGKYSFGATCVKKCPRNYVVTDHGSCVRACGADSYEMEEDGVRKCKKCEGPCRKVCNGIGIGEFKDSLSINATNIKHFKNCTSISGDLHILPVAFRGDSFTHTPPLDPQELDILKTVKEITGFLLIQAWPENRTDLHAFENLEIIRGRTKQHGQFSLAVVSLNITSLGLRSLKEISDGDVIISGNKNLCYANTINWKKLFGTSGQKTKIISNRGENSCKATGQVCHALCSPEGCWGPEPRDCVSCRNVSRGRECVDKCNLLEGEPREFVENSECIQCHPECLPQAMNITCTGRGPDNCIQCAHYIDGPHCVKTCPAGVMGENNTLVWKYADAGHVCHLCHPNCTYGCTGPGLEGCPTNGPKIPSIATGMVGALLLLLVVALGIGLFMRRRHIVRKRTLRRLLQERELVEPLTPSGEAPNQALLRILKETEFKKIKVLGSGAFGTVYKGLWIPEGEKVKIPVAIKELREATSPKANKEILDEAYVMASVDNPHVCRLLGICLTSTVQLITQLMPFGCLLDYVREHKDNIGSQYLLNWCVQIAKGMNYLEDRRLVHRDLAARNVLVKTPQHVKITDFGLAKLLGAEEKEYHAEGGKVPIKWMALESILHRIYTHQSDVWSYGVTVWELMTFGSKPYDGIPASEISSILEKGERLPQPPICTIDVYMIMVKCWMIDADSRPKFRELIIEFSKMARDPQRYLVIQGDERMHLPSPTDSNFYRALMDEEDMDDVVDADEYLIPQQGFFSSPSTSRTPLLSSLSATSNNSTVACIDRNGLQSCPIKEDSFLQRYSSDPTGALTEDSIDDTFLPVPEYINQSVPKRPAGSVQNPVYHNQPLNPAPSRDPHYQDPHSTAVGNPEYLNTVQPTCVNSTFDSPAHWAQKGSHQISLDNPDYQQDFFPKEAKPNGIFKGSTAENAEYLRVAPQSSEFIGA

By IC50 is commonly meant the concentration needed to halve the response being measured. In the case of `COc1cc2ncnc(Nc3ccncc3C(=O)NCc3cccs3)c2cc1OC`, in test [1], the IC50 came to 17 nM.
Turning to `CNC(=O)c1nc(Nc2ccc(NC(=O)Nc3cccc(C)c3)cc2)c2ccccc2n1`, the midpoint of inhibition in [2], the IC50, lay at 12.1 nM.
One may read the inhibition as the share of the control response that was lost under treatment. In test [3], `COc1cc2ncnc(Nc3ccc(-c4noc(Cc5cc6ccccc6[nH]5)n4)cc3)c2cc1OC` gave an IC50 of 17 nM. For the same compound, in test [4], the inhibition was 91%.
Take `O=[N+]([O-])c1ccc(COc2ncnc3ccc([N+](=O)[O-])cc23)cc1`: the IC50 in test [5] is 4.71 nM.
In the case of `Cc1ccc(Nc2ncnc3cc(NC(=O)Nc4ccc(Cl)c(C(F)(F)F)c4)ccc23)cc1`, the IC50 in test [6] was 1760 nM; in test [7] it was 810 nM; in test [8], 2490 nM.
As to `COc1cc2ncnc(Sc3nnc(C)s3)c2cc1OC`, in test [9], the inhibition is 91%. This compound also showed an IC50 in test [10] of 11900 nM. Further, the Activity in test [11] is 60%.
For `O=C(Nc1ccc(Oc2nc(Cl)nc3ccccc23)cc1)c1cccnc1`, the IC50 is 40900 nM in [12], 33400 nM in [13] and 24100 nM in test [14].
In test [15], `CC(C)c1ccc(Nc2ncnc3cc(NC(=O)Nc4ccccc4)ccc23)cc1` had an IC50 of 479 nM.
